For this test, the system named is SN12K1 renal. Briefly: NCI anticancer screen, dose series, 48 h.

Each structure is given as a SMILES string.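 Five concentrations, 48 hours, 96-well plates. TGI is the concentration that stops growth completely.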

Take `CNNCc1ccc(C(=O)NC(C)C)cc1`: the TGI is over 456000 nM.
Turning to `CC(=O)O[C@H]1C(=O)O[C@@H]2C[C@H]3C(C)=CC(=O)[C@@H](O)[C@]3(C)[C@H]3[C@@]4(O)OC[C@]32[C@@H]1[C@@H](C)[C@H]4O`, the TGI is 69.6 nM.
